ChEMBL document CHEMBL1137598, “Synthesis and structure-activity relationship of N-acyl-Gly-, N-acyl-Sar- and N-blocked-boroPro inhibitors of FAP, DPP4, and POP” (Bioorg Med Chem Lett, 2007)

Experiments:
[1] = biological target: Dipeptidyl peptidase 4 (Homo sapiens) (UniProt P27487); assay: Inhibition of DPP-4 at 500uM
Prolyl endopeptidase = biological target: T1, Prolyl endopeptidase (Homo sapiens, UniProt P48147); assay: Inhibitory constant against POP
T1 sequence (P48147 whole entry): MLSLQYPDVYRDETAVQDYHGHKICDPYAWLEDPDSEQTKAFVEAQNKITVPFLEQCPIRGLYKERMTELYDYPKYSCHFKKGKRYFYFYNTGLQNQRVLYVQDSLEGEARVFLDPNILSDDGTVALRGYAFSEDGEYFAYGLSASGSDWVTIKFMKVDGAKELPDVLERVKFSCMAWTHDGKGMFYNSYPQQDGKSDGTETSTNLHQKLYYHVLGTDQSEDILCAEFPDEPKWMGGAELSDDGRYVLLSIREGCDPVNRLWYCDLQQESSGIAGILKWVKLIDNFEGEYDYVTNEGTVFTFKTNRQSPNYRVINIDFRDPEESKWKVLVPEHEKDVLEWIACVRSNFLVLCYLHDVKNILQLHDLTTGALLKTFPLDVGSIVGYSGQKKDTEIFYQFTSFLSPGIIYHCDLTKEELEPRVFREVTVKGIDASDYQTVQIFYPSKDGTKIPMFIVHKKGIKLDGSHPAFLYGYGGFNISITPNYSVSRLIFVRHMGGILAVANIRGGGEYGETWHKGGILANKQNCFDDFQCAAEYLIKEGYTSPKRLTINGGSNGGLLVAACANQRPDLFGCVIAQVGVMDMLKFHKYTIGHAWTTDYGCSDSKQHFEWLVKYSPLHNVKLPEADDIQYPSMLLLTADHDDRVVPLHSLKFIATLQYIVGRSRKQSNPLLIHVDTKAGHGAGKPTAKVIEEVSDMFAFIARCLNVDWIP

Dipeptidyl peptidase 4 (Homo sapiens), sequence (P27487 whole entry, looked up): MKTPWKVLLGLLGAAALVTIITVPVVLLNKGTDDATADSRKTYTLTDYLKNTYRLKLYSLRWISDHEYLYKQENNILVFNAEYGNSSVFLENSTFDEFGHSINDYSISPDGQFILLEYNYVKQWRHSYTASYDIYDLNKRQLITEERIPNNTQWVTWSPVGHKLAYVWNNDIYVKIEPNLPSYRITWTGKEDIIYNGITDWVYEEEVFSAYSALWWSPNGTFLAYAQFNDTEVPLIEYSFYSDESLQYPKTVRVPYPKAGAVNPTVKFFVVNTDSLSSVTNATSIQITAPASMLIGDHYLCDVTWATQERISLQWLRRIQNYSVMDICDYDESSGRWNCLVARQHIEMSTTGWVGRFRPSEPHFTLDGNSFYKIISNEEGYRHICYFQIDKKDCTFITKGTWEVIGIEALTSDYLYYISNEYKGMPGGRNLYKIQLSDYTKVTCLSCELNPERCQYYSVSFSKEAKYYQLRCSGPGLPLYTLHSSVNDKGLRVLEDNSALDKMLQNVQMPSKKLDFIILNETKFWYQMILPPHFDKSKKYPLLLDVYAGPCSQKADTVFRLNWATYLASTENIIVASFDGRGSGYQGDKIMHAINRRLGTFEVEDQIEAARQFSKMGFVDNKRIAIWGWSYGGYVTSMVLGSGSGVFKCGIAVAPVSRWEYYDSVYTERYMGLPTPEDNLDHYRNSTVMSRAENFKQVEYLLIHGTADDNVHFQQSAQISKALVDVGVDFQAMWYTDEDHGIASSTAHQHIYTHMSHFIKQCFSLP

inhibition [1] [%] | Ki (Prolyl endopeptidase) [µM] | SMILES
17 | – | CC(=O)N[C@H](C)C(=O)N1CCC[C@H]1B(O)O
– | 0.013 | CC(C)C(=O)N(C)CC(=O)N1CCC[C@H]1B(O)O
– | 1.36 | CS(=O)(=O)NCC(=O)N1CCC[C@H]1B(O)O
